# Assay results published in US9266829B2, “Quinone compounds and their uses for the treatment of cancer” (Onco-NX Limited, priority 2012, dated 2016).
# Several values for one entry are separate records, joined by “and”; a condition that tells them apart may be missing. Identical values can stand only once. Like-named read-outs stand apart in the source and are kept apart here.
# Key:
# [1] = Solubility (aqueous and organic)
# [2] = Stability in aqueous and organic solution
# MDA NQ01 = assay: IC50 by MTT assay on NQ01 cells; assay type: cell-based, human; conditions: for MDA468 to NQ01 differential: ratio of IC50 values
# MDA468 = assay: IC50 by MTT assay on MDA468 cells; assay type: cell-based, human
# [3] = cited from earlier work
# NQ01 cells = assay: Combination index at IC50 with other anti-cancer agents in NQ01 cells; assay type: cell-based, human
# MDA468 cells = assay: Combination index at IC50 with other anti-cancer agents in MDA468 cells; assay type: cell-based, human
# physchem [4] = assay type: physicochemical; conditions: buffer, pH 7
# recombinant human DTD = recombinant human DTD (Homo sapiens, UniProt P15559); conditions: Beall et al.; Ross et al.; cited from earlier work
# H460 NSCLC = assay: In vivo hollow fibre assay, H460; conditions: fibres at s.c. site; i.p. dosing days 3-6; nude mice
# Protocol: (§1) The activity of Es5 (4.65) was evaluated in vivo against 3 cancer cell lines H460, MDA-MB-468-NQ01 and MDA-MB-468-MOCK using the in vivo hollow fibre assay (HFA), with fibres implanted at both intraperitoneal (i.p.) and subcutaneous (s.c.) sites. Es5 and the control agent Doxorubicin were administered as multiple doses by intraperitoneal injection (i.p.) on days 3, 4, 5 & 6 at 0.5 mg/kg/day and 2.5 mg/kg/day respectively.
# (§2) Three human tumour cell lines were selected for analysis: H460 NSCLC (from ICT) and two breast carcinoma lines MDA-MB-468-NQ01 and MDA-MB-468-MOCK (both supplied by Onco-NX). Cells were cultured in RPMI 1640 cell culture medium supplemented with 1 mM sodium pyruvate, 2 mM L-glutamine and 10% foetal bovine serum (all from Sigma), and maintained as monolayer cultures at 37° C. in a humidified 5% CO2 environment.
# (§3) Female Balb/C immunodeficient nude mice aged 6-8 weeks were used (Harlan UK, Blackthorn, UK). Mice were kept in cages housed in isolation cabinets in an air-conditioned room with regular alternating cycles of light and darkness. They received Teklad 2018 diet (Harlan, Blackthorn, UK) and water ad libitum. All animal procedures were carried out under a project licence issued by the UK Home Office and UKCCCR guidelines were followed throughout.
# Cells were loaded into sterilised colour-coded PVDF Spectra/Por hollow fibres (HF) (Spectrum Medical Inc, Houston, Tex., USA). Briefly cells were harvested and resuspended in cell culture medium at the required cell density. This preparation was then loaded into the HF and the ends were clamped and heat-sealed. […]
# (§4) Mice were sacrificed on day 7 post-implantation, fibres removed, and cell survival analysed using a modified MTT assay, comparing absorbances seen for the treated groups with the corresponding untreated control group. […]
# MDA-MB-468-MOCK = assay: In vivo hollow fibre assay, MDA-MB-468-MOCK; conditions: fibres at s.c. site; i.p. dosing days 3-6; nude mice
# Protocol: as §1, §2
# as §3, with “All animal procedures were carried out under a project licence issued by the UK Home Office and UKCCCR guidelines were followed throughout.” left out
# as §4
# MDA-MB-468-NQ01 = assay: In vivo hollow fibre assay, MDA-MB-468-NQ01; set-up: species or system mice
# Protocol: as §1, §2, §3
# Cells were loaded into sterilised colour-coded PVDF Spectra/Por hollow fibres (HF) (Spectrum Medical Inc, Houston, Tex., USA). Briefly cells were harvested and resuspended in cell culture medium at the required cell density. This preparation was then loaded into the HF and the ends were clamped and heat-sealed. The HF was then cut into 1.5 cm lengths which were again heat-sealed at both ends, and then transferred to 6-well plates containing medium before implantation for the in vivo experiments, or were incubated at 37° C. in a humidified 5% CO2 environment for varying times before processing using the modified MTT assay as described below.
# For the in vivo experiments, under brief inhalation anaesthesia (2% isoflurane), one loaded hollow fibre for each of the cell lines was transplanted intraperitoneally or subcutaneously on the dorsal flank of each mouse and the mice were allowed to recover. Each group consisted of 6 mice and the implantation day was termed ‘day 0’.
# For assessment of the therapeutic response of Es5 (4.65), on days 3, 4, 5 & 6 mice were treated with Es5 (4.65) at 0.5 mg/kg/day or Doxorubicin at 2.5 mg/kg/day.
# Mice were sacrificed on day 7 post-implantation, fibres removed, and cell survival analysed using a modified MTT assay, comparing absorbances seen for the treated groups with the corresponding untreated control group. Statistical analysis was carried out using a Student's t-test.
# physchem [5] = assay type: physicochemical; conditions: buffer, pH 7.4
# Protocol: The stability of esters and their hydrolysis products was measured in solution. (50 μM Es5 in Tris buffer (0.1 mol dm^−3) at pH 7.4). Samples were taken at timed intervals up to 24 hours and analysed by HPLC. The detection wavelength was 330 nm. Chromatographic analysis was carried out by isocratic elution with 30:70 MeOH: Tris buffer (0.1 mol dm^−3, pH 7.4), at 1 ml min^−1. The chromatographic separation of the drug was achieved using a Hypersil ODS column with 250 mm×4.6 mm I.D.
# Chain of recombinant human DTD (P15559 whole entry): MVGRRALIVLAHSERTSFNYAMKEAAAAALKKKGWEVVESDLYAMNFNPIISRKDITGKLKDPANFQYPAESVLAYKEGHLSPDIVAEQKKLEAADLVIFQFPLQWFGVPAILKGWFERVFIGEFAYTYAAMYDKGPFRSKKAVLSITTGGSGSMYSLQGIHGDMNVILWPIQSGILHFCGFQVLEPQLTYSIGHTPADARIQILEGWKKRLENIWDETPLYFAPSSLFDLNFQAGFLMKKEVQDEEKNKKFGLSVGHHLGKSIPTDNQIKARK
smiles,measurement,setting,value
"CC1=C(N2CC2)C(=O)C(CO)=C(N2CC2)C1=O [RH1, 2,5-diaziridiny 1-3-(hydroxymethyl)-6-methyl-1,4-benzoquinone]",Solubility (organic),[1]; DMSO/chloroform,>30 mg/mL
same,Solubility (aqueous),[1]; water,0.5 mg/mL (water)
same,Stability (aqueous),[2],>7 days
same,Stability (organic),[2]; in words,months
same,IC50,MDA NQ01; MTT assay,0.12 nM
same,MDA468 to NQ01 differential,MDA NQ01,> 30 fold
same,"Temperature stability, t90",Temperature stability; 4 C.,4 C. t90 >7 days
same,"Temperature stability, t90",Temperature stability; 40 C.,40 C. t90 2 days
same,"Temperature stability, t1/2",Temperature stability; 55 C.,55 C. t1/2 2 days
same,"Temperature stability, t90",Temperature stability; Ambient,Ambient t90 3 days
same,IC50,MDA468,4.41 nM and 3.5 nM
same,"pH stability, t1/2","[3]; pH 4.16, from AAPS PharmSciTech 2007",t1/2 = 0.07 days
same,"pH stability, t1/2","[3]; pH 7.33, from AAPS PharmSciTech 2007",t1/2 = 43.52 days
same,"pH stability, t1/2","[3]; pH 9.82, nearest comparison from AAPS PharmSciTech 2007, 8 (1) Article 16",t1/2 = 0.96 days
same,Combination index at IC50 with ARA-C in NQ01 cells,NQ01 cells; with ARA-C,1.22 (slight
same,Combination index at IC50 with Cis-platinum in MDA NQ01,NQ01 cells; with Cis-platinum,0.672 (synergy)
same,Combination index at IC50 with Docetaxel in NQ01 cells,NQ01 cells; with Docetaxel,0.864 (slight
same,Combination index at IC50 with Epirubicin in NQ01 cells,NQ01 cells; with Epirubicin,2.09 (antagonism)
same,Combination Index at IC50 with Mitomycin C in NQ01 cells,NQ01 cells; with Mitomycin C,1.2 (slight
same,Combination index at IC50 with cobalt chloride in NQ01 cells,NQ01 cells; with cobalt chloride,0.80 (moderate
same,Combination index at IC50 with ARC-C in MDA468 cells,MDA468 cells; with ARC-C,1.45 (slight
same,Combination index at IC50 with Cis-platinum in MDA468,MDA468 cells; with Cis-platinum,0.499 (synergy)
same,Combination index at IC50 with Docetaxel in MDA468 cells,MDA468 cells; with Docetaxel,0.850 (slight
same,Combination index at IC50 with Epirubicin in MDA468 cells,MDA468 cells; with Epirubicin,4.81 (strong
same,Combination Index at IC50 with Mitomycin C in MDA468 cells,MDA468 cells; with Mitomycin C,0.577 (synergy)
same,Combination index at IC50 with cobalt chloride in MDA468 cells,MDA468 cells; with cobalt chloride,0.170 (strong
CC(=O)OCCC1=C(N2CC2)C(=O)C(C)=C(N2CC2)C1=O [Compound 4-70],half-life,physchem [4],< 60 min
"CC1=C(N2CC2)C(=O)C(C)=C(N2CC2)C1=O [MeDZQ, 2,5-diaziridinyl-3,6-dimethyl-1,4-benzoquinone]",effectiveness as a substrate for recombinant human DTD relative to mitomycin C,recombinant human DTD,more than 150 fold
N.N.[Cl][Pt][Cl] [Cisplatin],IC50,MDA NQ01; MTT assay,570 nM
same,IC50,MDA468,675 nM
CN(Cc1cnc2nc(N)nc(N)c2n1)c1ccc(C(=O)N[C@@H](CCC(=O)O)C(=O)O)cc1 [Methotrexate],IC50,"MDA NQ01; Homo sapiens, MTT assay",27 nM
same,IC50,MDA468; Homo sapiens,45 nM
"COc1cccc2c1C(=O)c1c(O)c3c(c(O)c1C2=O)C[C@@](O)(C(=O)CO)C[C@@H]3O[C@H]1C[C@H](N)[C@H](O)[C@H](C)O1 [Doxorubicin, reference compound]","cell survival compared to the untreated control, H460, s.c. site",H460 NSCLC,did not demonstrate significant efficacy
same,"cell survival compared to the untreated control, MDA-MB-468-MOCK, s.c. site",MDA-MB-468-MOCK,did not demonstrate significant efficacy
same,"cell survival compared to the untreated control, MDA-MB-468-NQ01, s.c. site","MDA-MB-468-NQ01; fibres at s.c. site, i.p. dosing days 3-6, nude mice",did not demonstrate significant efficacy
same,efficacy in the NQ01-expressing compared to the Mock MDA-MB-468 cell line,MDA-MB-468-NQ01; hollow fibre assay,little difference
CCC(=O)OCC1=C(N2CC2)C(=O)C(C)=C(N2CC2)C1=O [Compound 4-38],half-life,physchem [4],20 min
CC1=C(N2CC2)C(=O)C(COC(=O)C(C)C)=C(N2CC2)C1=O [Compound 4-36],half-life,physchem [4],< 30 min
COc1ccc(OC)c(C(=O)OCC2=C(N3CC3)C(=O)C(C)=C(N3CC3)C2=O)c1 [Compound 4-07],half-life,physchem [4],< 20 min
CC1=C(N2CC2)C(=O)C(COC(=O)C(C)(C)C)=C(N2CC2)C1=O [Compound 4-39],half-life,physchem [4],< 30 min
CO[C@@]12[C@H](COC(N)=O)C3=C(C(=O)C(C)=C(N)C3=O)N1C[C@@H]1N[C@@H]12 [Mitomycin C],IC50,MDA NQ01; MTT assay,10 nM
same,MDA468 to NQ01 differential,MDA NQ01,~5 fold
same,IC50,MDA468,50 nM
"Nc1ccn([C@@H]2O[C@H](CO)[C@@H](O)[C@@H]2O)c(=O)n1 [Cytosine arabinoside (ARA-C), Cytosine arabinoside]",IC50,MDA NQ01; MTT assay,240 nM
same,IC50,MDA468,250 nM
COc1cccc2c1C(=O)c1c(O)c3c(c(O)c1C2=O)C[C@@](O)(C(=O)CO)C[C@@H]3O[C@H]1C[C@H](N)[C@@H](O)[C@H](C)O1 [Epirubicin],IC50,"MDA NQ01; Homo sapiens, MTT assay",27.5 nM
same,IC50,MDA468; Homo sapiens,23.2 nM
[Cl][Co][Cl] [Cobalt chloride],IC50,MDA NQ01; MTT assay,54000 nM
same,IC50,MDA468,35000 nM
"CC1=C(N2CC2)C(=O)C(CCCO)=C(N2CC2)C1=O [Compound 4-61, 2,5-Bisaziridin-1-yl-3-(3-hydroxypropyl)-6-methyl-1,4-benzoquinone]",half-life at 50 μM,physchem [4],> 1440 min
same,IC50,"MDA NQ01; Homo sapiens, MTT assay",0.41 nM
same,DT diaphorase enhancement ratio,MDA NQ01; IC50 MDA 468 / IC50 MDA NQO1,41
same,selectivity towards cells that express DT-diaphorase,"MDA NQ01; IC50 values, MTT assay",excellent selectivity
same,IC50,MDA468; Homo sapiens,17 nM
same,half-life at 50 μM,physchem [5],> 1440 min
COc1cccc(C(=O)OCC2=C(N3CC3)C(=O)C(C)=C(N3CC3)C2=O)c1OC [Compound 4-05],half-life,physchem [4],< 10 min
CC[C@]1(O)C[C@@H]2CN(CCc3c([nH]c4ccccc34)[C@@](C(=O)OC)(c3cc4c(cc3OC)N(C)[C@H]3[C@@](O)(C(=O)OC)[C@H](OC(C)=O)[C@]5(CC)C=CCN6CC[C@]43[C@@H]65)C2)C1 [Vinblastine],IC50,"MDA NQ01; Homo sapiens, MTT assay",18.3 nM
same,IC50,MDA468; Homo sapiens,16 nM
COc1cccc(OC)c1C(=O)OCC1=C(N2CC2)C(=O)C(C)=C(N2CC2)C1=O [Compound 4-11],half-life,physchem [4],< 30 min
CC(=O)O[C@@]12CO[C@@H]1C[C@H](O)[C@@]1(C)C(=O)[C@H](O)C3=C(C)[C@@H](OC(=O)[C@H](O)[C@@H](NC(=O)OC(C)(C)C)c4ccccc4)C[C@@](O)([C@@H](OC(=O)c4ccccc4)[C@H]21)C3(C)C [Docetaxel],IC50,"MDA NQ01; Homo sapiens, MTT assay",1.88 nM
same,IC50,MDA468; Homo sapiens,1.15 nM
COc1cc(C(=O)OCC2=C(N3CC3)C(=O)C(C)=C(N3CC3)C2=O)cc(OC)c1OC [Compound 4-14],half-life,physchem [4],< 30 min
CC1=C(N2CC2)C(=O)C(CCOC(=O)c2ccccc2)=C(N2CC2)C1=O [Compound 4-71],half-life,physchem [4],< 60 min
COc1ccc(C(=O)OCC2=C(N3CC3)C(=O)C(C)=C(N3CC3)C2=O)c(OC)c1 [Compound 4-10],half-life,physchem [4],< 30 min
CC1=C(N2CC2)C(=O)C(COC(=O)c2ccc([N+](=O)[O-])cc2)=C(N2CC2)C1=O [Compound 4-20],half-life,physchem [4],20 min
COc1ccc(C(=O)OCC2=C(N3CC3)C(=O)C(C)=C(N3CC3)C2=O)cc1OC [Compound 4-09],half-life,physchem [4],< 30 min
O=c1[nH]cc(F)c(=O)[nH]1 [5-fluorouracil],IC50,"MDA NQ01; Homo sapiens, MTT assay",12000 nM
same,IC50,MDA468; Homo sapiens,7960 nM
